The source of these data is PubChem BioAssay AID2060491 (Molecular Pharmacology Branch, DTP, NCI, 2025).

The test deals with 857933-349-R-J2-PDC complex spheroids, viability. Briefly: Anticancer human tumor 857933-349-R-J2-PDC patient-derived colon adenocarcinoma cell line growth inhibition [GQUAD]. Conditions: for viability, T/C: stronger effect = lower value. From the text:
DNA G-quadruplex Stabilizer Agents in Combinations in Complex Spheroids
A high-throughput screen of multi-cell type tumor spheroids was designed to identify active combinations of DNA G-quadruplex stabilizer agents and targeted small molecules. Complex spheroids include a stromal component modeled by human endothelial cells (HUVEC) and fibroblasts modeled by human mesenchymal stem cells (MSCs). The concentration ranges selected for each drug and investigational agent were based upon clinically achievable concentrations if the clinical Cmax of the agent was known.
Compounds. The drugs and investigational agents: pidnarulex (CX-5461; NSC782164), APTO-253 (NSC789042), BRACO-19 (NSC847499), peposertib (NSC802822), ceralasertib (NSC780249), elimusertib (NSC800525), camonsertib (NSC841442), AZD-1390 (NSC803789), olaparib (NSC753686), talazoparib (NSC767125), ART-558 (NSC835418), sotorasib (NSC818433), MRTX-1133 (NSC836407), SN-38 (NSC673596), topotecan (NSC609699), etoposide (NSC141540), doxorubicin (NSC123127), gemcitabine (NSC613327), 5-fluorouracil (NSC19893), paclitaxel (NSC125973), vemurafenib (NSC761431), panobinostat (NSC761190), R-306465 (JNJ-16241199; NSC773264), adavosertib (NSC754352), TP-3654 (NSC805149), carboplatin (NSC241240), KSQ-4279 (NSC840948), and staurosporine (NSC755774) were obtained from the National Cancer Institute (NCI) Developmental Therapeutics Program Chemical Repository (34). The FDA-approved anticancer drug set is available from the NCI Developmental Therapeutics Program. […] The stock solutions were prepared in dimethyl sulfoxide (DMSO, Sigma-Aldrich, St. Louis, MO, cat. D2650) at 800-fold the tested concentration and stored at -70 degrees C prior to their use. All drugs and investigational agents were tested over a range starting from a high concentration at or near the clinical Cmax and decreasing in half-log increments. If the clinical Cmax for an agent had not been determined, the highest concentration tested was 10 microM.
2.3 Cell Culture. All cells were maintained in an incubator at 37 degrees C and 5% CO2 with 95% humidity. The PDC lines were cultured according to standard operating procedures established by the NCI PDMR. All PDCs were thawed and cultured in Matrigel-coated flasks prepared with a working solution of 1X Ham's F-12 nutrient mix, without supplementation (Invitrogen, cat. 11765054), 100 U/mL penicillin-streptomycin (Invitrogen, cat. 15140122), and 2.5% Matrigel (Corning Inc., cat. 354248) for the first three passages. The 857933-349-R-J2-PDC line was cultured in 6C/Colon 1B media, which includes advanced DMEM/F-12 (Thermo Fisher Scientific, cat. 12634028), 10 mM HEPES (Thermo Fisher Scientific, cat. 15630080), 1X GlutaMAX supplement (Thermo Fisher Scientific, cat. 35050061), 0.1 mg/mL primocin (InvivoGen, cat. ant-pm-2), 10% defined fetal bovine serum, heat inactivated (HyClone Laboratories Inc., cat. SH30070.03HI), 50% L-WRN conditioned media (ATCC, cat. CRL-3276), 1.25 mM N-Acetyl-L-cysteine (Sigma-Aldrich, cat. A9165), 10 mM nicotinamide (Sigma-Aldrich, cat. N0636), 1X B-27 supplement (Thermo Fisher Scientific, cat. 17504044), 1X N-2 supplement (Thermo Fisher Scientific, cat. 17502048), 10 microM Y-27632 dihydrochloride (Tocris Bioscience, cat. 1254), and 50 ng/mL human EGF recombinant protein (Thermo Fisher Scientific, cat. PHG0311). The 485176-168-R4-J1-PDC line was cultured in Panc media, which includes all 6C/Colon 1B media components plus 100 ng/mL human FGF-10 (Thermo Fisher Scientific, cat. 100-26), 500 nM SB-431542 (Selleckchem, cat. S1067), and gastrin (Tocris, cat. 3006).
[…]

Several values for one entry are separate records, joined by “and”; a condition that tells them apart may be missing. Equal values may be shown once. A value given as a limit tells only on which side of the number the result lay.
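Further: spheroids exposed to compounds for one week before readout.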
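Wherever viability, T/C is given: percent viability relative to vehicle DMSO wells taken as 100%.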

In the case of `C=CC(=O)N1CCN(c2nc(=O)n(-c3c(C)ccnc3C(C)C)c3nc(-c4c(O)cccc4F)c(F)cc23)C(C)C1` (configuration not stated), the viability, T/C (compound 0.0316 µM) is 106% and 112% and 111%; the viability, T/C (compound 0.1 µM) is 94.1% and 102% and 90.6%; the viability, T/C (compound 0.316 µM) was 100% and 107% and 103%; the viability, T/C (compound 1 µM) is 102% and 110% and 106%; the viability, T/C (compound 3.16 µM) was 107% (2×) and 108%; the viability, T/C (compound 10 µM) is 90.5% and 111% and 101%. Further, the IC50 (curve of compound) is above 10000 nM.
For the compound `CC(=O)O[C@H]1C(=O)[C@@]2(C)[C@H]([C@H](OC(=O)c3ccccc3)[C@]3(O)C[C@H](OC(=O)[C@H](O)[C@@H](NC(=O)c4ccccc4)c4ccccc4)C(C)=C1C3(C)C)[C@]1(OC(C)=O)CO[C@@H]1C[C@@H]2O`, the viability, T/C was 52.5% and 76.2% and 43.1% (compound 0.0316 µM); 16.1% (2×) and 36.9% (compound 0.1 µM); 11.9% and 21.4% and 7.97% (compound 0.316 µM); 13.3% and 23.7% and 9.54% (compound 1 µM); 12% and 23.8% and 9% (compound 3.16 µM); 13.6% and 25.8% and 10.8% (compound 10 µM). Also, the half-maximal inhibitory concentration (IC50) (curve of compound) is 34.2 nM and 68.2 nM and < 31.6 nM.
For `CC(C)n1c(=O)n(C)c2cnc3cc(F)c(-c4ccc(OCCCN5CCCCC5)nc4)cc3c21`, the viability, T/C by setting is: (compound 0.0316 µM) 105% and 109% (2×); (compound 0.1 µM) 101% and 106% and 90.6%; (compound 0.316 µM) 104% and 109% and 108%; (compound 1 µM) 98.6% and 103% and 99.5%; (compound 3.16 µM) 104% and 110% and 107%; (compound 10 µM) 78.2% and 107% and 72.4%. In addition, the IC50 (curve of compound) is above 10000 nM.
Regarding `CC1COCCN1c1cc(-c2ccnn2C)c2ccnc(-c3ccn[nH]3)c2n1` (configuration not stated), the viability, T/C by setting is: (compound 0.0316 µM) 75.8% and 95.2% and 75.5%; (compound 0.1 µM) 52.4% and 84.3% and 52.1%; (compound 0.316 µM) 50.2% and 75.8% and 40.3%; (compound 1 µM) 46.9% and 63.2% and 44.1%; (compound 3.16 µM) 55.8% and 55.3% and 45.5%; (compound 10 µM) 51.8% and 61.9% and 43.6%.
For the compound `CC1COCCN1c1cc(C2(O)CC3CCC(C2)O3)c2cnn(-c3ccn[nH]3)c2n1` (configuration not stated), the viability, T/C was 68.6% and 76.9% and 98% (compound 0.0316 µM); 52% and 53% and 88.7% (compound 0.1 µM); 43.7% and 48.3% and 77.2% (compound 0.316 µM); 38.1% and 42% and 63.5% (compound 1 µM); 46.3% and 45.1% and 55.5% (compound 3.16 µM); 37.5% and 47.3% and 50.1% (compound 10 µM).
For the compound `CC1COCCN1c1cc(C2(S(C)(=N)=O)CC2)nc(-c2ccnc3[nH]ccc23)n1` (configuration not stated), the viability, T/C reads like this: (compound 0.0316 µM) 107% and 106% and 99%; (compound 0.1 µM) 96.8% and 99.1% and 94.2%; (compound 0.316 µM) 96.2% and 105% and 84.3%; (compound 1 µM) 68.3% and 92.9% and 61.6%; (compound 3.16 µM) 57.1% and 82.2% and 48.8%; (compound 10 µM) 47% and 65.2% and 39.2%. In addition, the IC50 (curve of compound) is 7380 nM and > 10000 nM and 2570 nM.
As for `CC[C@@]1(O)C(=O)OCc2c1cc1n(c2=O)Cc2cc3c(CN(C)C)c(O)ccc3nc2-1`, the viability, T/C runs as follows: (compound 0.000999 µM) 98.7% and 105% and 103%; (compound 0.00316 µM) 82.7% and 104% and 89%; (compound 0.00999 µM) 92.6% and 97.9% and 98.2%; (compound 0.0316 µM) 70.4% and 96.6% and 71.6%; (compound 0.0999 µM) 52.3% and 67.8% and 57.9%; (compound 0.316 µM) 40.8% and 48.1% and 34.1%. Besides, the IC50 (curve of compound) was 115 nM and 282 nM and 138 nM.
Take `CCc1c2c(nc3ccc(O)cc13)-c1cc3c(c(=O)n1C2)COC(=O)[C@]3(O)CC`: the viability, T/C is, setting by setting: (compound 0.000999 µM) 85.5% and 93.5% and 77.5%; (compound 0.00316 µM) 48.9% and 84.5% and 50.1%; (compound 0.00999 µM) 50% and 57.4% and 48.4%; (compound 0.0316 µM) 28% and 35.3% and 21.5%; (compound 0.0999 µM) 15.3% and 20.7% and 13%; (compound 0.316 µM) 11.9% and 6.62% and 10.2%. Also, the IC50 (curve of compound) is 5.62 nM and 16 nM and 4.84 nM.
As for `CN(C)c1ccc(Nc2c3ccc(NC(=O)CCN4CCCC4)cc3nc3cc(NC(=O)CCN4CCCC4)ccc23)cc1`, the viability, T/C was 104% [middle of 12 runs] (compound 0.0316 µM); 105% [middle of 12 runs] (compound 0.1 µM); 106% [middle of 12 runs] (compound 0.316 µM); 103% [middle of 12 runs] (compound 1 µM); 88.4% [middle of 12 runs] (compound 3.16 µM); 74.7% [middle of 12 runs] (compound 10 µM). Also, the IC50 (compound alone, run of 02/26/2024) is above 10000 nM.
Consider `COc1cc(C2c3cc4c(cc3C(OC3OC5COC(C)OC5C(O)C3O)C3COC(=O)C23)OCO4)cc(OC)c1O` (configuration not stated), for which the viability, T/C runs as follows: (compound 0.0316 µM) 86.8% and 82.9% and 104%; (compound 0.1 µM) 53.1% and 58.3% and 93.6%; (compound 0.316 µM) 55.8% and 48.1% and 82.6%; (compound 1 µM) 48.6% and 52.9% and 78.4%; (compound 3.16 µM) 42.6% and 39.1% and 59.5%; (compound 10 µM) 27.6% and 27.1% and 41.6%.

As usually defined, the viability, T/C is the result in the treated group divided by that in the control group, in per cent. What is called IC50 is the concentration that inhibits the measured activity by half.
